Counter-ions that a name gives are not always drawn.
Biological target: T1, NLRP3 (Homo sapiens, UniProt Q96P20)
T1 construct: Seed THP-1 cells (25,000 cells/well) containing 1.0 μg/ml LPS in 40 μl of RPMI medium; host or cells: THP-1 cells
Assay: THP-1 Cells Pyroptosis Assay
Type: cell-based
Conditions: THP-1 cells with 1.0 μg/ml LPS; compound 3 hours; nigericin 5 μM 1 hr; resazurin readout
Protocol: The cells were routinely passaged and grown to confluency (˜10^6 cells/ml). On the day of the experiment, THP-1 cells were harvested and resuspended into RPMI medium (without FBS). The cells were then counted and viability (>90%) checked by Trypan blue (Sigma #T8154). […] To this diluted cell solution was added LPS (Sigma #L4524) to give a 1 μg/ml Final Assay Concentration (FAC). 40 μl of the final preparation was aliquoted into each well of a 96-well plate. The plate thus prepared was used for compound screening.
The following method step-by-step assay was followed for compound screening. • 1. […] Incubate for 3 hours at 37° C., 5% CO2 • 4. Add 5 μl nigericin (Sigma #N7143) (FAC 5 μM) to all wells • 5. Incubate for 1 hr at 37° C., 5% CO2 • 6. At the end of the incubation period, spin plates at 300×g for 3 mins and remove supernatant • 7. Then add 50 μl of resazurin (Sigma #R7017) (FAC 100 μM resazurin in RPMI medium without FBS) and incubate plates for a further 1-2 hours at 37° C. and 5% CO2 • 8.

T1 sequence (Q96P20 whole entry): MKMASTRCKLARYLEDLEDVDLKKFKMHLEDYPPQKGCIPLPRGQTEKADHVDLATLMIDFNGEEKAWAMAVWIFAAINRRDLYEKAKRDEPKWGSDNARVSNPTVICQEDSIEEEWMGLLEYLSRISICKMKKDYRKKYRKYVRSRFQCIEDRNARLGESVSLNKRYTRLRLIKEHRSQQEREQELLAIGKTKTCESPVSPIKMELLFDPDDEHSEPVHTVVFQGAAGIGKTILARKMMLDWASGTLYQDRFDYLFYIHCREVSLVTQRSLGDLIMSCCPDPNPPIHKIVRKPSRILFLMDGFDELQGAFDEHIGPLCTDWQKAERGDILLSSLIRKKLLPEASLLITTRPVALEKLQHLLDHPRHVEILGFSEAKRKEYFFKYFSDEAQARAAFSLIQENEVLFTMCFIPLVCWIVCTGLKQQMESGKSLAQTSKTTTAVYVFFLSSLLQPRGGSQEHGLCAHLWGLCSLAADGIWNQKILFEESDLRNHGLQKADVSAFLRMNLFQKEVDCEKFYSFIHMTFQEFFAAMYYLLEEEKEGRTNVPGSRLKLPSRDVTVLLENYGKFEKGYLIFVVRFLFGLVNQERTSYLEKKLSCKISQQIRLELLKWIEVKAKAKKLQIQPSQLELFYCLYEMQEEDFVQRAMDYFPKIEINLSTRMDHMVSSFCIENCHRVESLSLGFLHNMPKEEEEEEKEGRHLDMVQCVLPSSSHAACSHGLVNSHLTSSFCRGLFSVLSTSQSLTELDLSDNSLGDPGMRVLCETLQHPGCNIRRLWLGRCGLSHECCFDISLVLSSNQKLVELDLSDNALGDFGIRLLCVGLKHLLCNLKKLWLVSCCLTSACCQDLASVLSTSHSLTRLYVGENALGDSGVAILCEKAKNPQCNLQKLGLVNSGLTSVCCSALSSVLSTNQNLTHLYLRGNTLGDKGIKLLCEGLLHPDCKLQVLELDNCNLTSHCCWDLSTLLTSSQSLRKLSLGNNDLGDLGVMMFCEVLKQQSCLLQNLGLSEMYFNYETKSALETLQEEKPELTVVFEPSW

| SMILES | IC50 |
| --- | --- |
| Cc1cc(C(F)(F)F)cc(O)c1-c1cc(C)c2oc(N[C@@H]3CCCN(C)C3)nc2n1 [Example 33, 3-Methyl-2-[7-methyl-2-[[(3R)-1-methyl-3-piperidyl]amino]oxazolo[4,5-b]pyridin-5-yl]-5-(trifluoromethyl)phenol;2,2,2-trifluoroacetic acid salt] | 5.8 nM |
| COc1cc(C)c(-c2ccc3oc(N[C@@H]4CCCN(C)C4)nc3n2)c(O)c1 [Example 34, 5-Methoxy-3-methyl-2-[2-[[(3R)-1-methyl-3-piperidyl]amino]oxazolo[4,5-b]pyridin-5-yl]phenol] | 18.9 nM |
| CCN1CCC[C@@H](Nc2nc3nc(-c4ccc5c(c4O)CCO5)c(C)cc3o2)C1 [Example 35, 5-[2-[[(3R)-1-Ethyl-3-piperidyl]amino]-6-methyl-oxazolo[4,5-b]pyridin-5-yl]-2,3-dihydrobenzofuran-4-ol] | 27.3 nM |
| Cc1cc(C2CC2)cc(O)c1-c1ccc2oc(N[C@@H]3CCCN(C)C3)nc2n1 [Example 36, 5-Cyclopropyl-3-methyl-2-[2-[[(3R)-1-methyl-3-piperidyl]amino]oxazolo[4,5-b]pyridin-5-yl]phenol] | 32 nM |
| Cc1cc(Cl)cc(O)c1-c1ccc2oc(N3CCOC4CCN(C)CC43)nc2n1 (centres unmarked) [Example 42, 5-Chloro-3-methyl-2-[2-(6-methyl-3,4a,5,7,8,8a-hexahydro-2H-pyrido[4,3-b][1,4]oxazin-4-yl)oxazolo[4,5-b]pyridin-5-yl]phenol] | 5.1 nM |
| Cc1cc(C(F)(F)F)cc(O)c1-c1ccc2oc(NCC34CC(CN3)C4)nc2n1 [Example 43, 2-[2-(2-Azabicyclo[2.1.1]hexan-1-ylmethylamino)oxazolo[4,5-b]pyridin-5-yl]-3-methyl-5-(trifluoromethyl)phenol;dihydrochloride] | 30.5 nM |
| Cc1cc(Cl)cc(O)c1-c1ccc2oc(N[C@@H]3CCCN(C)C3)nc2n1 [Example 44, 5-Chloro-3-methyl-2-[2-[[(3R)-1-methyl-3-piperidyl]amino]oxazolo[4,5-b]pyridin-5-yl]phenol] | 0.7 nM |
| CCN1CCC[C@@H](Nc2nc3nc(-c4c(C)cc(F)cc4O)ccc3o2)C1 [Example 45, 2-[2-[[(3R)-1-Ethyl-3-piperidyl]amino]oxazolo[4,5-b]pyridin-5-yl]-5-fluoro-3-methyl-phenol] | 0.9 nM |
| CCCN1CCC[C@@H](Nc2nc3nc(-c4c(C)cc(Cl)cc4O)ccc3o2)C1 [Example 46, 5-Chloro-3-methyl-2-[2-[[(3R)-1-propyl-3-piperidyl]amino]oxazolo[4,5-b]pyridin-5-yl]phenol] | 1 nM |
| Cc1cc(Cl)cc(O)c1-c1ccc2oc(N[C@@H]3CCCN(C4CCC4)C3)nc2n1 [Example 47, 5-Chloro-2-[2-[[(3R)-1-cyclobutyl-3-piperidyl]amino]oxazolo[4,5-b]pyridin-5-yl]-3-methyl-phenol] | 1.2 nM |
| CCN1CCC[C@@H](Nc2nc3nc(-c4c(C)cc5c(c4O)CCO5)ccc3o2)C1 [Example 48, 5-[2-[[(3R)-1-Ethyl-3-piperidyl]amino]oxazolo[4,5-b]pyridin-5-yl]-6-methyl-2,3-dihydrobenzofuran-4-ol] | 1.2 nM |
| Cc1cc(Cl)cc(O)c1-c1ccc2oc(N[C@@H]3C[C@H](O)CN(C)C3)nc2n1 [Example 49, (3S,5R)-5-[[5-(4-Chloro-2-hydroxy-6-methyl-phenyl)oxazolo[4,5-b]pyridin-2-yl]amino]-1-methyl-piperidin-3-ol] | 1.6 nM |
| Cc1cc(F)cc(O)c1-c1ccc2oc(N[C@@H]3CCCN(C)C3)nc2n1 [Example 50, 5-Fluoro-3-methyl-2-[2-[[(3R)-1-methyl-3-piperidyl]amino]oxazolo[4,5-b]pyridin-5-yl]phenol] | 1.7 nM |
| CCN1C[C@@H](O)C[C@@H](Nc2nc3nc(-c4c(C)cc(C(F)(F)F)cc4O)ccc3o2)C1 [Example 51, (3S,5R)-1-Ethyl-5-[[5-[2-hydroxy-6-methyl-4-(trifluoromethyl)phenyl]oxazolo[4,5-b]pyridin-2-yl]amino]piperidin-3-ol] | 1.8 nM |
| Cc1cc(C(F)(F)F)cc(O)c1-c1ccc2oc(N[C@@H]3CCCN(CCO)C3)nc2n1 [Example 52, 2-[2-[[(3R)-1-(2-Hydroxyethyl)-3-piperidyl]amino]oxazolo[4,5-b]pyridin-5-yl]-3-methyl-5-(trifluoromethyl)phenol] | 2.3 nM |
| CCN1CCC[C@@H](Nc2nc3nc(-c4c(O)cc(C(F)(F)F)cc4F)ccc3o2)C1 [Example 53, 2-[2-[[(3R)-1-Ethyl-3-piperidyl]amino]oxazolo[4,5-b]pyridin-5-yl]-3-fluoro-5-(trifluoromethyl)phenol] | 2.6 nM |

| SMILES | IC50 |
| --- | --- |
| CCN1C[C@@H](F)C[C@@H](Nc2nc3nc(-c4c(C)cc(Cl)cc4O)ccc3o2)C1 [Example 54, 5-Chloro-2-[2-[[(3R,5S)-1-ethyl-5-fluoro-3-piperidyl]amino]oxazolo[4,5-b]pyridin-5-yl]-3-methyl-phenol] | 10.1 nM |
| Cc1cc(C(F)(F)F)cc(O)c1-c1ccc2oc(N[C@@H]3C[C@H]3N(C)C)nc2n1 [Example 55, 2-[2-[[(1R,2R)-2-(Dimethylamino)cyclopropyl]amino]oxazolo[4,5-b]pyridin-5-yl]-3-methyl-5-(trifluoromethyl)phenol] | 17.8 nM |
| Cc1cc(C#N)cc(O)c1-c1ccc2oc(N[C@@H]3C[C@H](O)CN(C)C3)nc2n1 [Example 56, 3-Hydroxy-4-[2-[[(3R,5S)-5-hydroxy-1-methyl-3-piperidyl]amino]oxazolo[4,5-b]pyridin-5-yl]-5-methyl-benzonitrile] | 18.9 nM |
| Cc1cc(C(F)(F)F)cc(O)c1-c1ccc2oc(NC[C@H]3C[C@@](C)(O)C3)nc2n1 [Example 57, cis-2-[2-[(3-Hydroxy-3-methyl-cyclobutyl)methylamino]oxazolo[4,5-b]pyridin-5-yl]-3-methyl-5-(trifluoromethyl)phenol] | 50.3 nM |
| Cc1cc(C(F)(F)F)cc(O)c1-c1ccc2oc(NC[C@H]3C[C@](C)(O)C3)nc2n1 [Example 58, trans-2-[2-[(3-hydroxy-3-methyl-cyclobutyl)methylamino]oxazolo[4,5-b]pyridin-5-yl]-3-methyl-5-(trifluoromethyl)phenol] | 95.9 nM |
| CCN1CC(CNc2nc3nc(-c4c(C)cc(Cl)cc4O)ccc3o2)C1 [Example 59, 5-Chloro-2-[2-[(1-ethylazetidin-3-yl)methylamino]oxazolo[4,5-b]pyridin-5-yl]-3-methyl-phenol] | 30.1 nM |
| Cc1cc(C(F)(F)F)cc(O)c1-c1ccc2oc(N[C@@H]3CCCN(C4CC(O)C4)C3)nc2n1 (stereo partly drawn) [Example 61, 2-[2-[[(3R)-1-(3-hydroxycyclobutyl)-3-piperidyl]amino]oxazolo[4,5-b]pyridin-5-yl]-3-methyl-5-(trifluoromethyl)phenol] | 39.4 nM |
| Cc1cc(C(F)(F)F)cc(O)c1-c1ccc2oc(N3CC4COCC4C3)nc2n1 (centres unmarked) [Example 62, 2-[2-(1,3,3a,4,6,6a-Hexahydrofuro[3,4-c]pyrrol-5-yl)oxazolo[4,5-b]pyridin-5-yl]-3-methyl-5-(trifluoromethyl)phenol] | 84.8 nM |
| Cc1cc(Cl)cc(O)c1-c1ccc2oc(N[C@@H]3CCCN(C4COC4)C3)nc2n1 [Example 63, 5-Chloro-3-methyl-2-[2-[[(3R)-1-(oxetan-3-yl)-3-piperidyl]amino]oxazolo[4,5-b]pyridin-5-yl]phenol] | 57.5 nM |
| Cc1cc(C(F)(F)F)cc(O)c1-c1ccc2oc(N3CCO[C@@H]4CNC[C@H]43)nc2n1 [Example 64A, 2-[2-[(4aR,7aR)-3,4a,5,6,7,7a-Hexahydro-2H-pyrrolo[3,4-b][1,4]oxazin-4-yl]oxazolo[4,5-b]pyridin-5-yl]-3-methyl-5-(trifluoromethyl)phenol] | 1.7 nM |
| Cc1cc(C(F)(F)F)cc(O)c1-c1ccc2oc(N3CCO[C@H]4CNC[C@@H]43)nc2n1 [Example 64B, 2-[2-[(4aS,7aS)-3,4a,5,6,7,7a-Hexahydro-2H-pyrrolo[3,4-b][1,4]oxazin-4-yl]oxazolo[4,5-b]pyridin-5-yl]-3-methyl-5-(trifluoromethyl)phenol] | 13.9 nM |
| Cc1cc(Cl)cc(O)c1-c1ccc2oc(NC3CCC4CCCN4C3)nc2n1 (centres unmarked) [Example 65, 2-[2-(1,2,3,5,6,7,8,8a-Octahydroindolizin-6-ylamino)oxazolo[4,5-b]pyridin-5-yl]-5-chloro-3-methyl-phenol] | 20.3 nM |
| Cc1cc(C(F)(F)F)cc(O)c1-c1ccc2oc(NCC3CCN3C)nc2n1 (centres unmarked) [Example 66, 3-Methyl-2-[2-[(1-methylazetidin-2-yl)methylamino]oxazolo[4,5-b]pyridin-5-yl]-5-(trifluoromethyl)phenol] | 149 nM |
| Cc1cc(Cl)cc(O)c1-c1ccc2oc(NCc3c[nH]cn3)nc2n1 [Example 67, 5-Chloro-2-[2-(1H-imidazol-5-ylmethylamino)oxazolo[4,5-b]pyridin-5-yl]-3-methyl-phenol; formic acid] | 290 nM |
| CCN1C[C@H](O)C[C@@H](Nc2nc3nc(-c4c(C)cc(Cl)cc4O)ccc3o2)C1 [Example 68, (3R,5R)-5-[[5-(4-Chloro-2-hydroxy-6-methyl-phenyl)oxazolo[4,5-b]pyridin-2-yl]amino]-1-ethyl-piperidin-3-ol;formic acid] | 62.4 nM |
| Cc1ccc(C)c(-c2ccc3oc(N[C@@H]4CCCN(C)C4)nc3n2)c1O [Example 69, 3,6-Dimethyl-2-[2-[[(3R)-1-methyl-3-piperidyl]amino]oxazolo[4,5-b]pyridin-5-yl]phenol] | 2.7 nM |
